One test has as its target Phosphorylase. To be noted: read-out: I.C.50 Phosphorylase; phosphorylase purchased from Sigma or extracted from rat livers.
For the next test, the system named is cultured liver cells. Briefly: Glucose production from cultured rat hepatocytes (basal and glucagon stimulated glycogenolysis). The format is cell-based. To be noted: Hepatocyte; for activity at 50 µM / activity at 32 µM: 70 min, glucose in medium after 70 minutes; for activity at 50 µM: test compound 50µM; for activity at 32 µM: test compound 32µM. The protocol: During the last 24 hours, the hepatocytes were cultured in the presence of high levels of insulin (5 nM) and glucose (15 mM), which result in the incorporation of glucose into glycogen. Therefore, at the time of the experiment, the cells mimic livers from fed animals. Experiments were initiated after 72 hours of culture by 2 times wash of cells and addition of a 20 mM HEPES experimental buffer including balanced salts, but without glucose. The test compound was added simultaneously with the experimental buffer. To some cultures, glucagon (0.5 nM) was added after 10 minutes in order to stimulate glucose production from liver cells. The glucose released into the media, reflecting the glucose production of the liver cells, was measured 70 minutes after the start of the experiment and standardized to cellular DNA content.

A further test deals with T1, liver α-1,6-glucosidase (Homo sapiens, UniProt P35573).
T1 construct: from tissue
Briefly: Glycogen debranching enzyme activity (Brown and Brown method). The format is biochemical. To be noted: read-out: I.C.50 liver α-1,6-glucosidase.

[1] abbreviates: relative to basal glucose production (no addition with glucagon = 283%), read-out: Glucose production With glucagon (0.5nM).
Setting [2] is: basal, without glucagon, read-out: I.C.50 Liver cell glucose production: Basal.
Where [3] appears, read: read-out: I.C.50 Liver cell glucose production: Glucagon stimulated.

The structures appear in SMILES notation. Like-named read-outs stand apart in the source and are kept apart here.

T1 sequence (P35573 whole entry): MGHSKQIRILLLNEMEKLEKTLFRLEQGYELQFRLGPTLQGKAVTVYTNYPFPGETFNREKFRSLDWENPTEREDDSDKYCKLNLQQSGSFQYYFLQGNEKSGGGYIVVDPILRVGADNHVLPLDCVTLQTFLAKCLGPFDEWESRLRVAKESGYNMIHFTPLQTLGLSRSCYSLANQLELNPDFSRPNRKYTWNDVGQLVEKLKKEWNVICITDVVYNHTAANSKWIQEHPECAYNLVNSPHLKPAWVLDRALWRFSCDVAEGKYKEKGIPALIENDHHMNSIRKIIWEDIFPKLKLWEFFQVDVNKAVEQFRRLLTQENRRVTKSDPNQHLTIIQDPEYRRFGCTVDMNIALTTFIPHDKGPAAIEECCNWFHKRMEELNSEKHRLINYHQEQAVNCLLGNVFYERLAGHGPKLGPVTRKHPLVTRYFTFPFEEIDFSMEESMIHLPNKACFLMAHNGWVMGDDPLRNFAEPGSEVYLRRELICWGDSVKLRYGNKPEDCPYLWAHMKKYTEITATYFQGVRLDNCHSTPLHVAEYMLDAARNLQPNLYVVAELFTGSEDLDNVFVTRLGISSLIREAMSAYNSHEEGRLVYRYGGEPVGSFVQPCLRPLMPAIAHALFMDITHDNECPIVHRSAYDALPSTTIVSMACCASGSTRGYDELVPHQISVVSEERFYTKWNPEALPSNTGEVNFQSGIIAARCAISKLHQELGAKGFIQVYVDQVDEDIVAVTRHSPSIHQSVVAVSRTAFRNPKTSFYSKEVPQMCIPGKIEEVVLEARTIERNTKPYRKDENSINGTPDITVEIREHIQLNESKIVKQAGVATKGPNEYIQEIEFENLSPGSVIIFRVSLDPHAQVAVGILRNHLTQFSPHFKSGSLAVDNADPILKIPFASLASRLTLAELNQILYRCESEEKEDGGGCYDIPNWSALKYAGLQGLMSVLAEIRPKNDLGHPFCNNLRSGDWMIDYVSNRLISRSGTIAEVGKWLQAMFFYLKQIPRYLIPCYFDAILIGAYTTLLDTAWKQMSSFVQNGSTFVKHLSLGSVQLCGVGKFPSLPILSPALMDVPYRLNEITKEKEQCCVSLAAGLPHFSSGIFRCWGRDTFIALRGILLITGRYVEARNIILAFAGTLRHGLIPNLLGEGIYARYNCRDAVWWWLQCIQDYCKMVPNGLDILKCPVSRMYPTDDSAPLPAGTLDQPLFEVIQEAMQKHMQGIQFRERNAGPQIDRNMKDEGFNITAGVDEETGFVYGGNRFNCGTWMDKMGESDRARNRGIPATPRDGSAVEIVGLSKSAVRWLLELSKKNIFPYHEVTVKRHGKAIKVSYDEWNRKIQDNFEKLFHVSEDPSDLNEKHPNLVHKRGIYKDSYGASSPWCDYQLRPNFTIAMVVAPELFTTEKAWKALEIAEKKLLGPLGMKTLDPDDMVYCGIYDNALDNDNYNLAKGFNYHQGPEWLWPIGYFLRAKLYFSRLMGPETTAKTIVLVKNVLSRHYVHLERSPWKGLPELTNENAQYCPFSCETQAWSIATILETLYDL

For `OC[C@H]1NC[C@H](O)[C@@H](O)[C@@H]1O` [1-deoxynojirimycin], the IC50 at Phosphorylase was > 200 µM; in the test on cultured liver cells (setting [2]), > 100 µM; with cultured liver cells (setting [3]) it was > 100 µM; on liver α-1,6-glucosidase, 2.4 µM. For the same compound, the activity at 50 µM came out at 89% in the test on cultured liver cells (relative to basal glucose production (no addition = 100 %), read-out: Glucose production Without glucagon) and 237% in the test on cultured liver cells (setting [1]).
Turning to `OC[C@H]1CNC[C@@H](O)[C@@H]1O` [Example 1, (3R,4R,5R)-3,4-dihydroxy-5-hydroxymethylpiperidine], the activity at 32 µM in the test with cultured liver cells (relative to basal glucose production (no addition = 100 %), standardized to DNA, read-out: Glucose production Without glucagon) stood at 17%; with cultured liver cells (setting [1]) it was 32%. Also, the IC50 in the test on cultured liver cells (setting [2]) was found to be 1.3 µM; with cultured liver cells (setting [3]), 1.6 µM; on liver α-1,6-glucosidase, 77 µM.

These data come from EP0749423B1, “PIPERIDINES AND PYRROLIDINES” (NOVO NORDISK A/S, priority 1994, dated 1995).
